{"source": "patent US20260224521A1", "about": "“BIOMOLECULE FOR TREATMENT OF CORNEAL PATHOLOGIES” (Board of Supervisors of Louisiana State University and …, priority 2019, published 2026)", "key": {"corneal nerves": {"tested_on": "corneal nerves", "assay": "Corneal nerve analysis (PGP9.5 and SP whole-mount nerve density)", "assay_type": "in vivo, mouse", "excerpt": "PEDF+DHA stimulates corneal nerve regeneration in injury animal models (20-25). It was important to confirm the biological activity of RvD6si as a lipid mediator underlying the action of PEDF+DHA. To validate this, mice were injured and treated (as described in FIG. 4). Isolated corneas were stained with PGP 9.5, a pan-neuronal marker, and with SP neuropeptide antibodies. The density of non-injured corneal nerves positive to PGP 9.5 and SP, respectively, was used to normalize the values (FIG. 5). Substance P is a main neuropeptide in mammalian corneas (26-28).\n(§1) Mice were anesthetized with a mix of ketamine (200 mg/kg) and xylazine (10 mg/kg) injected intraperitoneally, and one drop of proparacaine hydrochloride solution (0.5%) was applied to the right eye subjected to injury. As previously described (19, 29), the center of the cornea was demarcated with a 2 mm trephine, and the epithelium and the anterior stroma were gently removed under a surgical microscope using a corneal rust ring remover (Algerbrush II; Alger Equipment Co., Lago Vista, TX, USA). One drop of 0.3% of tobramycin ophthalmic solution (Henry Schein, Melville, NY, USA) was applied to the eye to prevent postoperative infection. The same investigator (J.H.) performed all surgeries. Afterward, 10 μl of PEDF (50 ng/ml) plus DHA (50 nM) or DHA-derived lipid mediators were applied topically, as explained in each experimental design.\nTwelve days after injury and treatment, mice were euthanized, and the eyes enucleated and fixed with Zamboni's fixative (American Master Tech Scientific, Lodi, CA, USA) for 45 min at room temperature. The corneas were then excised and fixed for an additional 15 min, followed by 3 washes with PBS. To block nonspecific binding, corneas were incubated with 10% normal goat serum plus 0.5% Triton X-100 in PBS for 1 h at room temperature. Afterward, corneas were incubated with the primary antibodies, rabbit monoclonal anti-PGP9.5 (1:500), (ab108986; Abcam, Cambridge, MA, USA), and rat monoclonal anti-substance-P (SP; 1:100) (sc-21715; Santa Cruz Biotechnology, Dallas, TX, USA) for 24 h at room temperature with constant shaking. After being washed with PBS, the corneas were incubated with the corresponding secondary antibodies goat anti-rabbit Alexa-Fluor 488 (1:1000) and goat anti-rat Alexa-Fluor 488 (1:1000) (Thermo Fisher Scientific, Waltham, MA, USA) for 24 h at 4° C. Four radial cuts were performed on each cornea that was flatly mounted on a slide with the endothelium side up and examined with a fluorescent microscope (Deconvolution microscope DP80; Olympus, Tokyo, Japan). The images were merged together to build the entire view of the corneal nerve network. The corneal nerve density was measured using Photoshop CC 2014 (Adobe) as previously described (26, 29)."}, "mouse cornea [1]": {"tested_on": "mouse cornea", "assay": "Mouse corneal epithelium removal inside 2 mm diameter central area", "assay_type": "in vivo", "details": "topical eye drops, 3× daily for 12 days; 2020 (40)", "protocol": "as §1"}, "[2]": {"tested_on": "trigeminal ganglion (TG) gene expression", "assay": "Trigeminal ganglion RNA sequencing after corneal injury and treatment", "assay_type": "in vivo, mouse", "details": "RNA-seq, 12 days after corneal injury and topical treatment, vs vehicle", "protocol": "Because corneal sensory nerves originate in TG neurons, we wanted to validate whether corneal injury could be sensed in the TG and t, in turn, would elicit a gene expression response. Thus, TG were harvested 12 days after injury and treatment with RvD6si or RvD6 or vehicle treatment used as control (FIG. 4) and then RNA-seq analysis was performed. […] The box plots depict two activated genes by RvD6si in this class: C9orf72 and Gpm6a (FIG. 6). We also detected specific genes related to neuropeptides and ion channel receptors in the cornea that are stimulated by the addition of PEDF+DHA (19, 21, 24) (FIG. 6D). The RNA-seq established that RvD6 or RvD6si reduced gene expression of two major neuropeptides, tachykinin precursor 1 (Tac1) that encodes Substance P (SP) and calcitonin-related polypeptide beta (Calcb). It is important to note that these neuropeptides, especially Calcb, are major pain-induced mediators in migraine and other primary headaches (30).\nTG corresponding to the injury eye side (n=5) were harvested and kept in RNAlater solution (Thermo Fisher Scientific) until homogenized on ice using a Dounce homogenizer. Total mRNA was extracted using an RNeasy mini kit (Qiagen, Germantown, MD, USA) as described by the manufacturer. Purity and concentration of RNA were determined with a NanoDrop ND-1000 spectrophotometer (Thermo Fisher Scientific), and the samples were stored at −80° C. until used. RNA sequencing was performed using the adapted Smart-seq2 protocol (56). Briefly, one ng of total RNA was reverse transcribed with the Oligo-dT30VN and template-switching oligo (TSO) primers. The total cDNAs were amplified using ISPCR primer, and the library was made using the Nextera XT DNA library preparation kit (Illumina, San Diego, CA, USA). The libraries were pooled using the same molarity and sequenced using the NextSeq 500/550 High Output Kit v2 (75 cycles, Illumina). After demultiplexing, RNA-seq data were aligned to the GENCODE GRCm38 mouse primary genome assembly (Release M22, gencodegenes.org/mouse/) using the RSubread package v1.34.6 for R v3.6.1 (57). The outputted BAM files for sequencing data alignment were counted using featureCounts function (Subread v1.6.5 in Ubuntu LTS 16.4 operating system) (58). Next, the raw count data were subjected to differential gene expression analysis using DESeq2 package for R (59). The adjusted p-values were regarded as the false discover rate (FDR)."}, "mouse cornea [3]": {"tested_on": "mouse cornea", "assay": "Corneal wound healing 20 h after injury (methylene blue stained wounded area)", "assay_type": "in vivo", "details": "for corneal wound healing: compared to PEDF+DHA (and RvD6) treatment", "protocol": "Studies have shown that PEDF+DHA promotes corneal wound healing in rabbit (20, 21), and in normal and diabetic mice (24, 25) after experimental surgery. We validated the ability of RvD6s (either RvD6 or RvD6si) in stimulating corneal wound healing. The right mouse eyes were injured, and the animals were divided into four groups: vehicle, PEDF+DHA, RvD6, and RvD6si (FIG. 4).\nas §1\nMice were euthanized 20 h after injury and treatment, and corneas were stained with 0.5% methylene blue for 20 sec and then washed with PBS for 2 min. Photographs were taken with a dissecting microscope (SMZ 1500; Nikon, Tokyo, Japan) through an attached digital camera (DXM 1200; Nikon). The images corresponding to the wounded area were quantified using Photoshop CC 2014 software (Adobe, San Jose, CA, USA)."}, "mouse cornea [4]": {"tested_on": "mouse cornea", "assay": "Corneal sensitivity measurement (Belmonte non-contact aesthesiometer)", "assay_type": "in vivo", "details": "for recovery of corneal sensitivity: compared to PEDF+DHA (and RvD6) treatment; for corneal sensitivity: vs vehicle", "protocol": "Corneal sensitivity was evaluated at days 3, 6, 9 and 12 after corneal injury and treatment (FIG. 4). A new methodology to measure the sensation in mouse cornea was introduced using the Belmonte non-contact aesthesiometer. […] It is important to note that this range of normal corneal sensitivity is critical to evaluate corneal sensation since the Belmonte non-contact aesthesiometer working flow rate is from 20 to 200 ml/min. The range of normal corneal sensitivity from […] in the mouse was regarded as successful recovery after injury and treatment, and it was used to normalize the measurements.\nas §1\nThe non-contact corneal aesthesiometer has been described as a more reliable method than the standard Cochet-Bonnet aesthesiometer to determine the corneal sensation threshold (54). Therefore, for corneal sensation measurement, the Belmonte non-contact corneal aesthesiometer (55) was used with some modification. Briefly, one researcher held the mouse and kept the air output needle at a distance of 3 mm from the cornea. Another researcher controlled the air flow rate. The measurements started at an air flow rate of 80 ml per minute and then increased gradually by ten units until the mouse started blinking. When the mouse blinked, the air flow rate was recorded as the final corneal sensitivity index."}}, "note": "Entries after “also recorded” stand apart in the source; their conditions may differ."}
{"smiles": "CC/C=C\\C[C@@H](O)/C=C/C=C\\C/C=C\\C/C=C\\C=C\\[C@H](O)CCC(=O)O", "note": "(single isomer, unassigned) [RvD6si]", "values": [{"measurement": "total corneal nerve density, differences between RvD6si, RvD6, and PEDF+DHA", "setting": "corneal nerves; 12 days after injury and treatment", "value": "no significant differences"}, {"measurement": "total corneal nerve density (PGP 9.5)", "setting": "corneal nerves; 12 days after injury and treatment, % of the normal (uninjured) cornea", "value": "62.6±4.2", "unit": "%"}, {"measurement": "density of SP-positive nerves", "setting": "corneal nerves; 12 days after injury, compared to the vehicle-treated group", "value": "higher"}, {"measurement": "corneal wound healing, sensitivity and nerve regeneration", "setting": "mouse cornea [1]", "value": "Increased corneal wound healing, sensitivity"}, {"measurement": "C9orf72 gene expression in TG", "setting": "[2]", "value": "activated; also recorded: strong activation"}, {"measurement": "Calcb gene expression in TG", "setting": "[2]", "value": "reduced; also recorded: decreased"}, {"measurement": "Gpm6a gene expression in TG", "setting": "[2]", "value": "activated; also recorded: strong activation"}, {"measurement": "Nrp1 gene expression in TG", "setting": "[2]", "value": "selectively enhanced; also recorded: selective increase"}, {"measurement": "Rictor gene expression in TG", "setting": "[2]", "value": "strong induction; also recorded: potently and selectively induces"}, {"measurement": "Tac1 gene expression in TG", "setting": "[2]", "value": "reduced; also recorded: decreased"}, {"measurement": "Trpm8 gene expression in TG", "setting": "[2]", "value": "selectively enhanced; also recorded: increased expression"}, {"measurement": "C9orf72 gene expression in TG", "setting": "[2]; listed as RvD6i", "value": "induces"}, {"measurement": "Calcb gene expression in TG", "setting": "[2]; listed as RvD6i", "value": "decreased; also recorded: down-regulated"}, {"measurement": "Gpm6a gene expression in TG", "setting": "[2]; listed as RvD6i", "value": "induces"}, {"measurement": "Rictor gene expression in TG", "setting": "[2]; listed as RvD6i", "value": "strong inducer; also recorded: up-regulated"}, {"measurement": "Tac1 gene expression in TG", "setting": "[2]; listed as RvD6i", "value": "decreased; also recorded: down-regulated"}, {"measurement": "Trpm8 gene expression in TG", "setting": "[2]; listed as RvD6i", "value": "increased; also recorded: up-regulated"}, {"measurement": "corneal wound healing (wound closure)", "setting": "mouse cornea [3]; 20 h after injury and topical treatment, compared to vehicle", "value": "greatest increase"}, {"measurement": "corneal wound healing", "setting": "mouse cornea [3]", "value": "more potently"}, {"measurement": "corneal wound healing", "setting": "mouse cornea [3]; listed as RvD6i", "value": "accelerated"}, {"measurement": "recovery of corneal sensitivity", "setting": "mouse cornea [4]", "value": "more potently"}, {"measurement": "recovery of corneal sensitivity", "setting": "mouse cornea [4]; listed as RvD6i", "value": "accelerated; also recorded: sooner"}, {"measurement": "corneal sensitivity", "setting": "mouse cornea [4]; day 3 after injury and treatment", "value": "faster recovery; also recorded: significantly higher"}, {"measurement": "corneal sensitivity", "setting": "mouse cornea [4]; day 6 after injury and treatment", "value": "faster recovery; also recorded: significantly higher"}, {"measurement": "corneal sensitivity", "setting": "mouse cornea [4]; day 9 after injury and treatment", "value": "significantly higher"}]}
